What was measured:
[1] = target: T1, PAF (Canis lupus familiaris, UniProt A0A8I3NSH0); assay: PAF Radioreceptor Binding Assay; conditions: Table I; dog platelets, 3H-PAF
T1 construct: followed by 2×10^7 dog platelets; from tissue; host or cells: washed platelets from citrate-treated dog blood
T1 sequence (A0A8I3NSH0 1-343): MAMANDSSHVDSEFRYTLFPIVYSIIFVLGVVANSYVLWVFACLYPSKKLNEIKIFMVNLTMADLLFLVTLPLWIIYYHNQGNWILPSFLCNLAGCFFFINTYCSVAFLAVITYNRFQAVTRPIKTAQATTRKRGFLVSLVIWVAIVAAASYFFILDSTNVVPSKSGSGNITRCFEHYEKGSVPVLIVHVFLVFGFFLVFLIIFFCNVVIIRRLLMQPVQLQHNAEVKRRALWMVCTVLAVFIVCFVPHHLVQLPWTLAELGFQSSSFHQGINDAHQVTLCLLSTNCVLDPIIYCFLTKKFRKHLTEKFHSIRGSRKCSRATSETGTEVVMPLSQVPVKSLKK
Protocol: Platelet rich plasma is prepared by centrifugation of citrate-treated dog blood. Acidification to pH 6.5 with 0.15 M citric acid and centrifugation for 10 minutes at 1000 xg yields a platelet pellet which is then washed by resuspension in EDTA-Phosphate Buffered Saline (PBS) and recentrifuged. The washed platelet preparation is adjusted to 2×10^7 platelets/50 μl in 0.1% BSA-PBS. […] After mixing, incubating for 10 minutes at room temperature, and centrifuging for 1 minute in a Beckman Microfuge B (8000 xg), the pellet is removed by clipping off the tip of the tube, the platelets are solubilized with 200 μl of 50% methanol, and counted in 10 ml of Aquasol. […] Results obtained with representative compounds of the present invention in this assay are summarized hereinafter in Tables I, II and III.

[2] = test system: SRS-A; assay: Guinea Pig Ileum, In Vitro (SRS-A antagonism); conditions: Table I, read-out: SRS-A Antagonism IC50
Protocol: The guinea pig ileum bioassay system has been described by Orange and Austen, Adv. Immunol. 10: 104-144 ([…]). A 1.5 cm segment is removed from animals weighting 300-400 g. and suspended in an organ bath containing 10 ml. of Tyrodes solution with 10^-6 M atropine sulfate and 10^-6 M pyrilamine maleate. The bath is maintained at 37° C. and aerated with a mixture of 95% oxygen and 5% carbon dioxide. The SRS-A utilized in this screen is obtained by challenging chopped lung fragments from actively sensitized guinea pigs with egg albumin, in vitro. A dose-response curve to SRS-A challenge is established for the ileum. The dose of SRS-A which gives 50% of the maximal contraction (EC50) is then used for subsequent challenge. The drug concentration which inhibits, by 50%, the SRS-A induced constriction of the guinea pig ileum is determined.

[3] = test system: leukotriene E4 (LTE4); assay: LTE4-Induced Guinea Pig Bronchoconstriction Test; assay type: in vivo; conditions: 10 mg/kg i.v.
Protocol: In this test system, the ability of a drug to inhibit the bronchoconstriction induced in guinea pigs by leukotriene E4 (LTE4) is measured. A maximally constrictory dose of LTE4 is injected into guinea pigs which have been pretreated with propranolol (0.1 mg/kg, i.v.) for 5 minutes prior to challenge. The bronchoconstriction (in cm H2 O) elicited in animals pretreated intravenously for 30 seconds (at 10 mg/kg) or orally for 2 hours (at 100 mg/kg) with the test drug prior to LTE4 challenge is compared to that elicited in the absence of the test compound to determine the in vivo activity of the drug.

[4] = test system: PAF; assay: PAF-Induced Guinea Pig Bronchoconstriction Test; assay type: in vivo, guinea pig (Hartley); conditions: for inhibition of PAF-induced bronchoconstriction: 1.0 mg/kg i.v., 1 min pretreatment
Protocol: Male guinea pigs (Hartley strain) weighing 300 to 500 g are anesthetized with urethane (2 g/kg) intraperitoneally and a polyethylene cannula is inserted into the jugular vein for drug administration. Tracheal pressure is recorded from a cannula inserted in the trachea and connected to a Statham pressure transducer. Propranolol (0.1 mg/kg) is administered intravenously five minutes before challenge with synthetic PAF, the animals's skeletal muscles are then paralyzed with succinylcholine (1.2 mg/kg i.v.), and the animal is respirated using a Harvard small animal respirator operating at 40 breaths/min and 2.5 cc stroke volume. Under these conditions PAF induces a dose-dependent increase in ventilatory pressure over a dose range of 0.5 to 5 pg/kg i.v. The bronchoconstrictive effect of PAF occurs at approximately a 10-fold lower dose than that obtained with LTE. For screening purposes animals are challenged with a single dose of PAF (10 pg/kg i.v.).
Test compounds are screened by either the intravenous route (1.0 mg/kg i.v., 1 min pretreatment) or oral route (100 mg/kg p.o., 2 hour pretreatment). The peak increase in ventilatory pressure (cm H2 O) is recorded for three control animals and five drug-treated animals and the percent inhibition determined.

[5] = test system: PAF; assay: PAF-Induced Rat Skin Wheal Test; assay type: in vivo, Sprague-Dawley rats; conditions: for inhibition of PAF-induced rat skin wheal: 5 mg/kg i.v. (1 min. pretreatment)
Protocol: This test evaluates the ability of compounds to inhibit PAF-induced increases in vascular permeability in the skin of Sprague-Dawley rats. PAF induces a dose-dependent skin wheal response in this system over a dose range of 0.0001 to 1 pg/0.05 ml injection. The profound vasoactive activity of PAF is emphasized by the fact that the maximum skin wheal response is considerably greater than that obtained with LTE and an EC50 response is elicited at a 10-fold lower dose. For drug screening purposes, 5 ng of PAF is injected intradermally into anesthetized rats which had been pretreated for 30 minutes with an antihistamine (pyrilamine maleate, 50 mg/kg, i.p.) and an antiserotonin compound (methylsergide maleate, 4 mg/kg, i.p.). Immediately thereafter, the test compound is injected intravenously into the tail vein of the animal. This is followed by an intravenous injection of Evan's blue dye (0.5% in saline). Thirty minutes later the animals are sacrificed and the increase in vascular permeability induced by the migration of dye into the injection point in the skin is determined. For this purpose, rats are sacrificed by cervical dislocation, the dorsal skin is removed, the long and short axis of each […] is measured with a metric vernier caliper and the average diameter is obtained.

Compound	inhibition of LTE4-induced bronchoconstriction [3] [%]	inhibition of PAF-induced bronchoconstriction [4] [%]	inhibition of PAF-induced rat skin wheal [5] [%]	other results
CCCc1c(OCCCCCC(=O)NCCCCc2cccnc2)ccc(C(C)=O)c1O.Cl [Example 4, 6-(4-Acetyl-3-hydroxy-2-propylphenoxy)-N-[4-(3-pyridinyl)butyl]hexanamide hydrochloride]	95	–	–	IC50 [1]: 700 nM; IC50 [2]: 6 µM
CCCc1c(OCCCC#CC(=O)NCCCCc2cccnc2)ccc(C(C)=O)c1O [Example 21, 6-(4-Acetyl-3-hydroxy-2-propylphenoxy)-N-[4-(3-pyridinyl)butyl]-2-hexynamide]	–	98±10	62±3	–
CCCc1c(OCCCCCC(=O)OCCCc2cccnc2)ccc(C(C)=O)c1O.Cl [Example 28, 6-(4-Acetyl-3-hydroxy-2-propylphenoxy)-hexanoic acid, 3-(3-pyridinyl)propyl ester hydrochloride]	87	–	–	–
CCCc1c(OCc2ccc(C(=O)NC(C)CCCc3cccnc3)cc2)ccc(C(C)=O)c1O (stereo not shown) [Example 34, 4-[(4-Acetyl-3-hydroxy-2-propylphenoxy)-methyl]-N-[1-methyl-4-(3-pyridinyl)butyl]benzamide]	–	85±8	63±4	–
CCCCCCCCCCCCCCCCOCC(COP(=O)([O-])OCC[N+](C)(C)C)OC(C)=O (stereo not shown) [PAF, reference compound]	–	–	–	bronchoconstrictive effect of PAF, dose lower than that with LTE ([4]; i.v., compared with LTE): ~10 fold; EC50 response in skin wheal, dose lower than with LTE ([5]; compared with LTE): 10 fold

From US4672066A, “Derivatives of 4-acetyl-3-hydroxy-2-alkyl-phenoxycarboxylic acids” (Hoffmann-La Roche Inc., priority 1985, dated 1987)
